Drawing on US6162830A, “Benzenesulfonamide inhibitors of PDE-IV and their therapeutic use” (Warner-Lambert Company, priority 2000, dated 2000), this text covers IC50 for 13 compounds.

Molecules are shown by their SMILES.

This assay relates to PDE-IV. As to the kind of experiment: PDE-IV Assay Procedure (SPA, 3H-cAMP, U937 lysate). The format is biochemical. To be noted: U937 cell lysate as PDE-IV source; 200 nM cAMP, 8 nM 3H-cAMP; pH 8.0; 2% DMSO; 1 hour at 37° C.; initially tested at 10, 3, 1, 0.3, 0.1 μM. As for the experimental part:
Representative compounds to be tested were diluted in 96-well plates. The compounds were either received as a 10 mM stock solution in DMSO, or as a solid which was resuspended to a concentration of 10 mM in DMSO. The compounds were initially tested at 10, 3, 1, 0.3, and 0.1 μM to calculate an IC50. In some cases, plates containing diluted compounds were frozen before being assayed. In these cases, the plates were thawed for 15 minutes at 37° C. and agitated before proceeding.
Two microliters of the diluted compounds on Rolipram were spotted into an assay plate. Ninety-eight microliters of reaction mixture containing PDE-IV enzyme were added to each well. The plate was then agitated for 2 minutes at a setting of 3.5 on a vortex and incubated for 1 hour at 37° C. The reaction was terminated with 50 μl of 0.5X SPA beads, and the reaction tray was allowed to incubate at room temperature for 20 minutes before radioactivity was measured using standard instrumentation.
The reaction mixture contained 35.2 mM Tris pH 8.0, 9.4 mM MgCl2, 4 mM β-mercapotoethanol, 200 nM cAMP, 8 nM ^3 H-cAMP, 2% DMSO 1% U937 lysate (from ABS). The reaction mixture was prepared by adding […] H2 O to 10 mL 10X Assay Buffer, 40 μL 1 μCi/μL ^3 H-cAMP, 20 μL 1 mM cAMP (cAMP stock made fresh each time), and 1 mL U937 cell lysate. 10X assay buffer was prepared by mixing 400 mM Tris Base with 400 mM Tris HCl to pH 8.0, adding to 100 mL of this Tris buffer solution, 1.017 g MgCl2, 319 μL μ-mercaptoethanol. 0.5X SPA beads was prepared by adding 500 mg beads to 56 mL H2 O for a final concentration of 8.9 mg/mL beads and 9 mM zinc sulfate.

As to `CCCN(CCC)S(=O)(=O)c1ccc(OC)c(OC)c1` [Example 4, N,N-Dipropyl-3,4-dimethoxybenzenesulfonamide], the IC50 (in general, the concentration that inhibits the measured activity by half) was found to be 0.46 µM.
Compound `C=CCN(CC=C)S(=O)(=O)c1ccc(OC)c(OC)c1` [Example 5, N,N-Di-(2-propenyl)-3,4-dimethoxybenzenesulfonamide] registered an IC50 of 0.45 µM.
In the case of `CCOc1ccc(S(=O)(=O)N(C)C)cc1OCC` [Example 6, N,N-Dimethyl-3,4-diethoxybenzenesulfonamide] it was 0.28 µM; in that of `COc1ccc(S(=O)(=O)N2CCCCC2)cc1OC` [Example 7, N-(3,4-dimethoxybenzenesulfonyl)piperidine], 3.6 µM.
The result for `COc1ccc(S(=O)(=O)N2CCCC2)cc1OC` [Example 8, N-(3,4-dimethoxybenzenesulfonyl)pyrrolidine] reads 3.2 µM; that for `COc1ccc(S(=O)(=O)NC2CCCCC2)cc1OC` [Example 9, N-(3,4-dimethoxybenzenesulfonyl)cyclohexylamine], 2.2 µM.
In the case of `C#CCN(C)S(=O)(=O)c1ccc(OCC)c(OCC)c1` [Example 10, N-(2-Propynyl)-N-methyl-3,4-diethoxybenzenesulfonamide] it was 0.17 µM.
On to `CCN(C)S(=O)(=O)c1ccc(OC)c(OC)c1` [Example 11, N-Ethyl-N-methyl-3,4-dimethoxybenzenesulfonamide], for which the IC50 was 0.7 µM.
In the case of `CCCN(C)S(=O)(=O)c1ccc(OC)c(OC)c1` [Example 12, N-Propyl-N-methyl-3,4-dimethoxybenzenesulfonamide] it was 0.47 µM.
The result for `C=CCN(C)S(=O)(=O)c1ccc(OC)c(OC)c1` [Example 15, N-(2-Propenyl)-N-methyl-3,4-dimethoxybenzenesulfonamide] reads 0.66 µM; that for `CC=CCN(C)S(=O)(=O)c1ccc(OC)c(OC)c1` [Example 16, N-(2-Butenyl)-N-methyl-3,4-dimethoxybenzenesulfonamide], 1.56 µM; that for `C=CCN(C)S(=O)(=O)c1ccc(OCC)c(OCC)c1` [Example 17, N-(2-Propenyl)-N-methyl-3,4-diethoxybenzenesulfonamide], 0.02 µM.
The result for `COc1ccc(S(=O)(=O)N(C)CC#N)cc1OC` [Example 23, N-(methylenenitrile)-N-methyl-3,4-dimethoxybenzenesulfonamide] reads 1.76 µM.
